Each structure is given as a SMILES string.

The record followed here is the Kinase Knowledgebase extract (Sharma et al. 2016).

The target of experiment [1] is PIK3CA (human) (UniProt P42336). In words: Enzyme Assay.
The target of experiment [2] is PIK3CB (Human) (UniProt P42338). The experiment can be described thus: Enzyme Assay.
The target in experiment [3] is PIK3CD (Human) (UniProt O00329). The experiment can be described thus: Enzyme Assay.
A further experiment deals with PIK3CG (human) (UniProt P48736). In words: Enzyme Assay.
Chain of PIK3CG (human) (P48736 whole entry, looked up): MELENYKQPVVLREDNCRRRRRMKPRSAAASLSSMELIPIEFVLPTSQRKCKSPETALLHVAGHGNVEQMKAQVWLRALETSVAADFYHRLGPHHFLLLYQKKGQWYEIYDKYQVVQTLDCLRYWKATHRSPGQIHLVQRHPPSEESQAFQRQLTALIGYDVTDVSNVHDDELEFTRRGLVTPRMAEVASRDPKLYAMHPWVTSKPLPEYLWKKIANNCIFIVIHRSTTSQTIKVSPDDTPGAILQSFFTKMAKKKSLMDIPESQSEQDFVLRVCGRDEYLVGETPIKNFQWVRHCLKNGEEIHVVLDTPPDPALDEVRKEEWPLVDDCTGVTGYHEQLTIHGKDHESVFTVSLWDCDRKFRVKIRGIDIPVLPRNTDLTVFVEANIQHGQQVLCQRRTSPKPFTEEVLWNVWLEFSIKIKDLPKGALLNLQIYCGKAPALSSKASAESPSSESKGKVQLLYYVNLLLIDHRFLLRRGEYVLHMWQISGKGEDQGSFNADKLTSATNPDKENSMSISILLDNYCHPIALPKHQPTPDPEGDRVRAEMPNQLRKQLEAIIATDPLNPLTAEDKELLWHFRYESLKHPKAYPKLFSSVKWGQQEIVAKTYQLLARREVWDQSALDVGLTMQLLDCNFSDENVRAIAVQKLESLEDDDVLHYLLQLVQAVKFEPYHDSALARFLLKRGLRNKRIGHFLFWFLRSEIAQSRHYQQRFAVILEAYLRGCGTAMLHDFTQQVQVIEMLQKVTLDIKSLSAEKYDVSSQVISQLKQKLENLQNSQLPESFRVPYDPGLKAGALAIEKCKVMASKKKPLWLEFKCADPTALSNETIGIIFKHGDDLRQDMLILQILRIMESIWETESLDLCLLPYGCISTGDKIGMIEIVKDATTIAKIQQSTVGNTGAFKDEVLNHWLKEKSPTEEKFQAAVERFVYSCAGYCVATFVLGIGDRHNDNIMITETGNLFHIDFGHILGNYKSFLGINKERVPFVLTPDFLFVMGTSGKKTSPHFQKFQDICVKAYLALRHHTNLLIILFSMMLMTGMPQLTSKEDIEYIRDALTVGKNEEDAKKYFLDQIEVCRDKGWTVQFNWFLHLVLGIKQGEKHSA
The target in experiment [4] is PIK3CD (Human) (UniProt O00329). The experiment can be described thus: Cell-Based Assay. To be noted: raji.
For experiment [5], the target named is PIK3CA (human) (UniProt P42336). The experiment can be described thus: Cell-Based Assay. To be noted: skov-3.
The target of experiment [6] is PIK3CB (Human) (UniProt P42338). The experiment can be described thus: Cell-Based Assay. To be noted: 786-o.

Chain of PIK3CD (Human) (O00329 whole entry, looked up): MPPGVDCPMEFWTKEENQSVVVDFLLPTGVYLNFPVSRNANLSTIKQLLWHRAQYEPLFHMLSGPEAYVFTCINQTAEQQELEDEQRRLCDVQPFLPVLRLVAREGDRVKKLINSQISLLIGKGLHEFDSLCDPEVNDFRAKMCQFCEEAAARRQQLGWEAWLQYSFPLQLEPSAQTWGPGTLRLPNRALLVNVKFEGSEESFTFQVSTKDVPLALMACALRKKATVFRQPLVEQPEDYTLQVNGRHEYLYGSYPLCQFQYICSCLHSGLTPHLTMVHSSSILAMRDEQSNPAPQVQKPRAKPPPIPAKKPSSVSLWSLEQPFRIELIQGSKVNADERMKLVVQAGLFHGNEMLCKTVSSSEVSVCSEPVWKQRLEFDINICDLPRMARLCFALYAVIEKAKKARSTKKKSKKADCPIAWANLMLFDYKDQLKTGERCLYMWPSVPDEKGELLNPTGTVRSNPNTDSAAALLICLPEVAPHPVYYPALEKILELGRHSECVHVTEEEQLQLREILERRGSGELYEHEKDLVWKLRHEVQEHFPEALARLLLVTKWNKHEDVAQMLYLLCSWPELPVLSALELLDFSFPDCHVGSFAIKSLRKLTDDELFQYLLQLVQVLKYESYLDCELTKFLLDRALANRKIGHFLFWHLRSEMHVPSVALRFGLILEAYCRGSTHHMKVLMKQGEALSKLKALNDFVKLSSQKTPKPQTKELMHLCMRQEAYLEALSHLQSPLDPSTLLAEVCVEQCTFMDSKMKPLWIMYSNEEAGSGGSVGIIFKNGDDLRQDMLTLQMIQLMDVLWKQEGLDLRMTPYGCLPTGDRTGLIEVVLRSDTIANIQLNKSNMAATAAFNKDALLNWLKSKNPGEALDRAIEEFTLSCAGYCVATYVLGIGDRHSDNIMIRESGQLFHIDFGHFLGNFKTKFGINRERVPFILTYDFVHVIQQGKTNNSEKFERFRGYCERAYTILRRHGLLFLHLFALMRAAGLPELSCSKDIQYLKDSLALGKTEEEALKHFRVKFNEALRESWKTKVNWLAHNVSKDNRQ
Chain of PIK3CA (human) (P42336 whole entry, looked up): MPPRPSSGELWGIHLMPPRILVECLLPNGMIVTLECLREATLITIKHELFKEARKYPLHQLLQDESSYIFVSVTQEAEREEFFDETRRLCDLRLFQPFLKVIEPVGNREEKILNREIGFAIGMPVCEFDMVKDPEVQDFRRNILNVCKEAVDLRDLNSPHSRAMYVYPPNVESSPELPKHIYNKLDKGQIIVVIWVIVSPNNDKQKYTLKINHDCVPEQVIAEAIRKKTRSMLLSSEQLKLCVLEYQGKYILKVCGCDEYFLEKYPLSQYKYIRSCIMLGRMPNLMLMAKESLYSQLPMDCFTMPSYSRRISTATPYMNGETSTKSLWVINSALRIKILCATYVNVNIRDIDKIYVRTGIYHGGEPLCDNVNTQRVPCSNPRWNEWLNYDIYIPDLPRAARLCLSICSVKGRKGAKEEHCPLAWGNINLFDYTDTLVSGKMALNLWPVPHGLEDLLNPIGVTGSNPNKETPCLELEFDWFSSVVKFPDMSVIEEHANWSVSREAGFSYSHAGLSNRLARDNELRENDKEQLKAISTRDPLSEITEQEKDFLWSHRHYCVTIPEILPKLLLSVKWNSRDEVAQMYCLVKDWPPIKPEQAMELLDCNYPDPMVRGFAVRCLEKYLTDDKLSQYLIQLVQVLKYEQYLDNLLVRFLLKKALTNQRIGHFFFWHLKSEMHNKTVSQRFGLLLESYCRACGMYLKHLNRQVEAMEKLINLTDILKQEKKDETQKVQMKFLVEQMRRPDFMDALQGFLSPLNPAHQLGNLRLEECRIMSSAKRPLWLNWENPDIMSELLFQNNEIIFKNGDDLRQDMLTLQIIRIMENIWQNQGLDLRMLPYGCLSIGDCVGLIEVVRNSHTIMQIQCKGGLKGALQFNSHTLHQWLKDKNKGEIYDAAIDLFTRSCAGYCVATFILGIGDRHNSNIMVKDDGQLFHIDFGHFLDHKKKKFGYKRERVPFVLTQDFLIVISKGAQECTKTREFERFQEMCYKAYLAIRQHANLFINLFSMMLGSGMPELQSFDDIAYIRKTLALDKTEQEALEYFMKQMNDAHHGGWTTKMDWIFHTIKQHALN
Chain of PIK3CB (Human) (P42338 whole entry, looked up): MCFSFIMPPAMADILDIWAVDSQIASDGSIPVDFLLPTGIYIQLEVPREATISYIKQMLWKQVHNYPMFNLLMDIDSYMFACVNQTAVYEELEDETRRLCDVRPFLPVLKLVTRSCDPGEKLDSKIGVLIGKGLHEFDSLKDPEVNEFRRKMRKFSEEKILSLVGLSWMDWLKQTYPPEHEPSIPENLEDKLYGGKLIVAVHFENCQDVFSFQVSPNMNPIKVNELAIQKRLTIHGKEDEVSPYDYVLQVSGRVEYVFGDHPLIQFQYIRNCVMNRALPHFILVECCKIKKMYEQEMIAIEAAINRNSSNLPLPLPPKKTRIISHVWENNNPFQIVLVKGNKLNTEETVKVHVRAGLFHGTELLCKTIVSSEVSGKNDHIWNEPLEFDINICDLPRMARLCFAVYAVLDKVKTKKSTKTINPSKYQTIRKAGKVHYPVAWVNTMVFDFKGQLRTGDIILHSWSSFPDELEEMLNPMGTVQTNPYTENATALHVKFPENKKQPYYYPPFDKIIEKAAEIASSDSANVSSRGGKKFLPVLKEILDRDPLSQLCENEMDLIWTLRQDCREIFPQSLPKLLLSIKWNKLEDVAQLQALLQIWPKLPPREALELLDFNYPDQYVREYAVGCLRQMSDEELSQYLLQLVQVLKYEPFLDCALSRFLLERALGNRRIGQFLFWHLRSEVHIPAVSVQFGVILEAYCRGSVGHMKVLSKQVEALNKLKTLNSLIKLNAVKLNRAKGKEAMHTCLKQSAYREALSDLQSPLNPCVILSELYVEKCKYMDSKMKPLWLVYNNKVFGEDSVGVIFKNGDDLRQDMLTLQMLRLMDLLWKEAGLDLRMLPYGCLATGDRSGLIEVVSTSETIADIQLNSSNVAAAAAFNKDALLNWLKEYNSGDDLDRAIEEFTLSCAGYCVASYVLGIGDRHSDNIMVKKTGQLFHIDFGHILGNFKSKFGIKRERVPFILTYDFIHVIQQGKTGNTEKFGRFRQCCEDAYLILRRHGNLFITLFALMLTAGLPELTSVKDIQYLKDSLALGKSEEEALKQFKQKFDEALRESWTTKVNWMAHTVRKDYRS

What is called IC50 is the concentration needed to halve the response being measured. A lower IC50 goes with greater potency in that assay. Turning to `C[C@H](Nc1ncnc2scnc12)c1cc2cccc(Cl)c2c(=O)n1-c1ccon1`, the IC50 against PIK3CA (human) [1] was above 10 µM; against PIK3CB (Human) [2], 0.1 to 1 µM; against PIK3CD (Human) [3], below 0.1 µM; against PIK3CG (human), 0.1 to 1 µM; against PIK3CD (Human) [4] it was below 0.1 µM.
Turning to `Cc1ncc(-c2cccc3cc([C@H](C)Nc4ncnc5scnc45)n(-c4ccon4)c(=O)c23)cn1`, the IC50 against PIK3CA (human) [1] is above 10 µM; against PIK3CB (Human) [2], above 10 µM; on PIK3CD (Human) [3] it was 0.1 to 1 µM; on PIK3CG (human), above 10 µM; against PIK3CD (Human) [4] it was below 0.1 µM.
Turning to `COc1ncc(-c2cccc3cc([C@H](C)Nc4ncnc5scnc45)n(-c4ccon4)c(=O)c23)cn1`, the IC50 against PIK3CD (Human) [3] is below 0.1 µM; against PIK3CG (human), 0.1 to 1 µM; against PIK3CA (human) [5], 0.1 to 1 µM; on PIK3CB (Human) [6], 0.1 to 1 µM; against PIK3CD (Human) [4], below 0.1 µM.
Take `COc1ncc(-c2cccc3cc([C@H](C)Nc4ncnc5scnc45)n(-c4ccccc4)c(=O)c23)cn1`: the IC50 at PIK3CD (Human) [3], against PIK3CG (human) and against PIK3CD (Human) [4] was below 0.1 µM throughout.
For the compound `CC(C)n1c([C@H](C)Nc2ncnc3scnc23)cc2cccc(-c3ccnnc3)c2c1=O`, the IC50 at PIK3CA (human) [1] was above 10 µM; against PIK3CB (Human) [2], above 10 µM; at PIK3CD (Human) [3] it was 0.1 to 1 µM; against PIK3CG (human), above 10 µM; against PIK3CD (Human) [4], below 0.1 µM.
As for `CC(C)n1c([C@H](C)Nc2ncnc3scnc23)cc2cccc(-c3ccc(=O)n(C)c3)c2c1=O`, the concentration for half-maximal inhibition (IC50) is below 0.1 µM at PIK3CD (Human) [3]; 0.1 to 1 µM against PIK3CG (human); 0.1 to 1 µM against PIK3CA (human) [5]; 0.1 to 1 µM on PIK3CB (Human) [6]; below 0.1 µM at PIK3CD (Human) [4].
With `C[C@H](Nc1ncnc2scnc12)c1cc2cccc(-c3cncc(N)c3)c2c(=O)n1-c1ccccc1`, the IC50 is above 10 µM against PIK3CB (Human) [2], below 0.1 µM against PIK3CD (Human) [3], 0.1 to 1 µM against PIK3CG (human) and below 0.1 µM against PIK3CD (Human) [4].
As to `C[C@H](Nc1ncnc2scnc12)c1cc2cccc(-c3cnn(C)c3)c2c(=O)n1-c1ccccc1`, the half-maximal inhibitory concentration (IC50) is 0.1 to 1 µM on PIK3CA (human) [1]; below 0.1 µM against PIK3CD (Human) [3]; below 0.1 µM against PIK3CG (human); 0.1 to 1 µM at PIK3CA (human) [5]; below 0.1 µM against PIK3CD (Human) [4].
